In US9855270B2, “Methods and compositions for modulating estrogen receptor mutants” (priority 2014, dated 2018):
Read-outs that look alike come from different tables or passages of the source.

Assays:
[1] = test system: MCF-7 cells stably expressing UbC HA-ER-α wild-type; assay: MCF-7 Stable Cell Line Viability (UbC HA-ER-α series); format: cell-based; settings: UbC HA-ER-α Wild-type; for EC50: Homo sapiens, MCF7, read-out: Potency (EC50; nM); for Percent inhibition compared to vehicle: 5-Day Incubation; for Efficacy (Emax): Day 5 relative to Day 0
Excerpt: (§1) MCF-7 Mutant ER-α Stable Cell Line Generation: MCF-7 cells stably expressing wild-type or ER-α mutants were generated by subcloning ESR1 wild-type and mutant cDNAs containing an amino terminal hemagglutinin tag into pCDH-EF1-MCS-(PGK-Puro) (referred to as EF1 HA-ER-α) and pCDH-UbC-MCS-EF1-Hygro (referred to as UbC HA-ER-α) (System Biosciences). The resulting plasmids, in addition to an empty vector negative control, were subsequently cotransfected into HEK293T cells with the pPACKH1 packaging plasmid mix (System Biosciences) according to the manufacturer's protocol. Four days post transfection lentiviral particles were purified from the cell medium, tiered and stored at −80° C. MCF-7 cells were transduced with the purified viral particles and stable cell lines were selected by growth in RPMI containing 10% FBS plus 1 μG/mL puromycin or 200 μG/mL hygromycin for pCDH-EF1-MCS-(PGK-Puro) and pCDH-UbC-MCS-EF1-Hygro, respectively.
(§2) MCF-7 Stable Cell Line Viability: MCF-7 cells were enumerated with a hemacytometer adjusted to a concentration of 40,000 cells per mL in Phenol Free RPMI containing 10% CSS with NEAA and Sodium Pyruvate. 16 microliters of the cell suspension was added to each well of a 384 well tissue culture treated white clear bottom polystyrene plate (Corning) using a Matrix 16 channel electronic pipette. The cells were incubated overnight to allow the cells to adhere. The following day, 16 microliters of Phenol Free RPMI containing 10% CSS with NEAA and Sodium Pyruvate was added to the wells of one plate, followed by 16 μL of CellTiter-Glo (Promega, Madison Wis.) luminescent cell viability reagent using a Matrix 16 channel electronic pipette. […] The “average” of the relative luminescence units (RLUs) of the wells are considered to be the baseline value at time=zero. In addition, a 10 point, 1:5 serial dilution in DMSO (Sigma-Aldrich) was performed using Matrix 12 channel electronic pipette, including DMSO only as […]. 4 μL of each dilution was then added to 196 μL of RPMI containing 10% CSS with NEAA and Sodium Pyruvate. 16 μL of medium containing compound was added to the cells at a final concentration ranging from 10 μM to 5 pM. Compound dilution in media and subsequent addition to cells were carried out using Matrix 12 channel electronic pipettes. After 5 day compound exposure, 16 μL of CellTiter-Glo (Promega, Madison Wis.) luminescent cell viability reagent was added to the cells using a Matrix 16 channel electronic pipette. CellTiter-Glo added to 32 μL of medium without cells was used to obtain a background value. […] The relative luminescence units (RLUs) of each well were measured, and relative proliferation (fold) of each sample was determined as follows: (RLU sample−RLU background)/(RLU at T=0)=relative proliferation
(§3) The UbC promoter is reported by the manufacturer (System Biosciences) to express low to moderate RNA levels while the EF1 promoter expresses high levels (System Biosciences).

[2] = test system: MCF-7 cells (negative control); assay: as above; format: cell-based; settings: Receptor None (MCF-7 negative control); for EC50: Homo sapiens, MCF7, read-out: Potency (EC50; nM)
Excerpt: as §1, §2, §3

[3] = test system: MCF-7 cells transduced with an empty EF1 lentiviral vector (negative control); assay: MCF-7 Stable Cell Line Viability (EF1 HA-ER-α series); format: cell-based; settings: for EC50: Homo sapiens, MCF7, Receptor None (empty EF1 lentiviral vector), read-out: Potency (EC50; nM); for Percent inhibition compared to vehicle / Efficacy (Emax): Receptor None (empty EF1 lentiviral vector); for Percent inhibition compared to vehicle: 5-Day Incubation; for Efficacy (Emax): Day 5 relative to Day 0
Excerpt: as §1, §2, §3

[4] = test system: MCF-7 cells stably expressing EF1 HA-ER-α wild-type; assay: as above; format: cell-based; settings: EF1 HA-ER-α Wild-type; for Percent inhibition compared to vehicle: 5-Day Incubation; for Efficacy (Emax): Day 5 relative to Day 0; for EC50: Homo sapiens, MCF7, read-out: Potency (EC50; nM)
Excerpt: as §1, §2, §3

wild-type ER-α = target: T1, wild-type ER-α (Homo sapiens, UniProt P03372)
T1 sequence (P03372 1-595): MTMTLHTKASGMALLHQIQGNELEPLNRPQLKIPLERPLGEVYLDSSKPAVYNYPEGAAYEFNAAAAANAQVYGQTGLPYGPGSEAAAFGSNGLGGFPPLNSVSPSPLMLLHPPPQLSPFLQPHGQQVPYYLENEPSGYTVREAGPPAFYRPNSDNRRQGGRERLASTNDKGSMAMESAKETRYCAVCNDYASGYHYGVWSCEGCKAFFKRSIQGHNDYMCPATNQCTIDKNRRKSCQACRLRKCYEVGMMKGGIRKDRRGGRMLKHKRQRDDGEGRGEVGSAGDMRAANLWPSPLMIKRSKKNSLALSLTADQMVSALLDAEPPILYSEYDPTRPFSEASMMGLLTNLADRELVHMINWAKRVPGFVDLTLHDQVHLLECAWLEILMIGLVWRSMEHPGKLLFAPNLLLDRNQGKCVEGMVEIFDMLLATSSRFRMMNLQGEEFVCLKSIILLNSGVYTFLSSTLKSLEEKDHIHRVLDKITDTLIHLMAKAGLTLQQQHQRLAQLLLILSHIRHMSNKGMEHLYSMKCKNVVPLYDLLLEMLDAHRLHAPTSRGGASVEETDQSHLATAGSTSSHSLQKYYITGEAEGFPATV

[5] = test system: MCF-7 cells stably expressing ER-α mutants; settings: 5 day proliferation assays; depending on the mutation and assay format
Method: Potency and efficacy of ERM 1-3 were measured in vitro in ER dependent transcriptional reporter assays and viability assays of MCF-7 cells stably expressing ER-α mutants.
as §1
MCF-7 Stable Cell Line Viability: MCF-7 cells were enumerated with a hemacytometer adjusted to a concentration of 40,000 cells per mL in Phenol Free RPMI containing 10% CSS with NEAA and Sodium Pyruvate. 16 microliters of the cell suspension was added to each well of a 384 well tissue culture treated white clear bottom polystyrene plate (Corning) using a Matrix 16 channel electronic pipette. The cells were incubated overnight to allow the cells to adhere. […] The “average” of the relative luminescence units (RLUs) of the wells are considered to be the baseline value at time=zero. […] The relative luminescence units (RLUs) of each well were measured, and relative proliferation (fold) of each sample was determined as follows: (RLU sample−RLU background)/(RLU at T=0)=relative proliferation
Potency and efficacy of ERM 4-23 were measured in vitro in ER dependent transcriptional reporter assays and viability assays of MCF-7 cells stably expressing ER-α mutants.

[6] = Antagonist Mode, −E2 (Table 27)

CC1=C(c2cccc(O)c2)[C@H](c2ccc(OCCN3CC(CF)C3)cc2)Oc2ccc(O)cc21 [Compound 4-23, (S)-2-(4-(2-(3-(fluoromethyl)azetidin-1-yl)ethoxy)phenyl)-3-(3-hydroxyphenyl)-4-methyl-2H-chromen-6-ol]
EC50 ([1]; Agonist Mode, −E2): 4.04 ± 8.01 nM | EC50 ([1]; Antagonist Mode, +E2): 0.599 ± 0.3 nM | Percent inhibition compared to vehicle ([1]; Agonist Mode, −E2): 39% | Efficacy (Emax) ([1]; Agonist Mode, −E2): 1.13 ± 0.13 | Percent inhibition compared to vehicle ([1]; Antagonist Mode, +E2): 76% | Efficacy (Emax) ([1]; Antagonist Mode, +E2): 1.20 ± 0.10 | EC50 ([2]; Agonist Mode, −E2): 0.227 ± 0.21 nM | EC50 ([2]; Antagonist Mode, +E2): 0.378 ± 0.216 nM | Percent inhibition compared to vehicle ([2]; Agonist Mode, −E2, 5-Day Incubation): 31% | Efficacy (Emax) ([2]; Agonist Mode, −E2, Day 5 relative to Day 0): 1.20 ± 0.27 | Percent inhibition compared to vehicle ([2]; Antagonist Mode, +E2, 5-Day Incubation): 66% | Efficacy (Emax) ([2]; Antagonist Mode, +E2, Day 5 relative to Day 0): 1.08 ± 0.04 | EC50 ([3]; Antagonist Mode, +E2): 2.81 ± 3.28 nM | EC50 [3, 6]: 0.286 ± 0.294 nM | Percent inhibition compared to vehicle ([3]; Agonist Mode, −E2): 52% | Efficacy (Emax) ([3]; Agonist Mode, −E2): 1.06 ± 0.24 | Percent inhibition compared to vehicle ([3]; Antagonist Mode, +E2): 76% | Efficacy (Emax) ([3]; Antagonist Mode, +E2): 0.96 ± 0.12 | Percent inhibition compared to vehicle ([4]; Agonist Mode, −E2): 62% | Efficacy (Emax) ([4]; Agonist Mode, −E2): 2.17 ± 0.03 | Percent inhibition compared to vehicle ([4]; Antagonist Mode, +E2): 68% | Efficacy (Emax) ([4]; Antagonist Mode, +E2): 2.17 ± 0.29 | EC50 ([4]; Antagonist Mode, +E2): 8.65 ± 10.5 nM | EC50 [4, 6]: 2.13 ± 2.06 nM | Percent inhibition compared to vehicle (wild-type ER-α; Agonist Mode, −E2): 86% | Efficacy (Emax) (wild-type ER-α; Agonist Mode, −E2, relative to vehicle treated wild-type ER-α): 0.14 ± 0.10 | Percent inhibition compared to vehicle (wild-type ER-α; Antagonist Mode, +E2): 96% | Efficacy (Emax) (wild-type ER-α; Antagonist Mode, +E2, relative to vehicle treated wild-type ER-α): 0.08 ± 0.07 | reduced the number of viable cells (compared to DMSO control) [5]: 49%-90%
